The structures appear in SMILES notation.

The results in this text go back to patent US9458145B2, “Benzimidazole derivatives as bromodomain inhibitors” (Gilead Sciences, Inc., priority 2013, dated 2016).

One assay relates to MT-4 cells. Description: MT-4 proliferation assay. The settings on record: Homo sapiens, MT4, 120 h, read-out: MT4 Assay, (IC50, nM). The class given is cell-based, human. On the procedure: MT-4 Proliferation Assay:
Compounds were tested in a standardized high-throughput 384-well assay format. Each compound was serially diluted 3-fold in 100% DMSO in polypropylene 384-well plates using a Biomek FX Workstation, and 0.4 μL compound added to an assay plate containing 40 μL RPMI media. Compounds were arranged in a horizontal pattern, with 10 concentrations per compound, and 8 compounds added per plate. Due to low DMSO tolerability, the final DMSO concentration never exceeded 0.5% (v/v). Each assay plate contained 10 μM Puromycin and 0.5% DMSO in RPMI-1640 as positive and negative controls respectively. MT-4 cells (HTLV-1 transformed, human T lymphoblastoid cells, NIH Aids Reagent program) were added in volumes of 35 μL per well and 2,000 cells per well using a Biotek uFlow Workstation (Biotek, Winooski, Vt.), and the plates subsequently incubated for 5 days at 37° C. in an incubator set at 5% CO2 and 90% humidity.
After 5 days, 22 μL Cell Titer Glo (Promega) was added to the assay plates with a Biotek uFlow Workstation. Plates were subsequently placed on a Perkin Elmer Envision Plate Reader for 5 minutes before the luminescence signal was read.
What is called IC50 is the concentration that inhibits the measured activity by half. As to `Cc1noc(C)c1-c1cc(S(=O)(=O)NC2CCCC2)c2nc([S+](C)[O-])[nH]c2c1` (centres unmarked) [Compound 1020-5, N-Cyclopentyl-6-(3,5-dimethylisoxazol-4-yl)-2-(methylsulfinyl)-1H-benzo[d]imidazole-4-sulfonamide], the IC50 came to 329 nM.

The assay is the same for the next values; noted with them: Homo sapiens, MT4, 120 h; Table 1; 5 days, Cell Titer Glo; method text calls it EC50; read-out: MT4 Assay, (IC50).
Consider `Cc1n[nH]c(C)c1-c1cc(-c2c(C)noc2C)cc2[nH]c(NC3CC3)nc12` [Compound 1020-81, N-Cyclopropyl-4-(3,5-dimethyl-1H-pyrazol-4-yl)-6-(3,5-dimethylisoxazol-4-yl)-1H-benzo[d]imidazol-2-amine], for which the IC50 worked out at 7.6 nM.
For the molecule `Cc1noc(C)c1-c1cc(N2C(=O)CCC2C)c2nc(C3CC3)[nH]c2c1` (centres unmarked) [Compound 1020-136, 1-(2-Cyclopropyl-6-(3,5-dimethylisoxazol-4-yl)-1H-benzo[d]imidazol-4-yl)-5-methylpyrrolidin-2-one], the IC50 came out at 335 nM.
Same read-out and setting: for `Cc1ccnc(C)c1-c1cc(-c2c(C)noc2C)cc2[nH]cnc12` [Compound 1020-84, 4-(4-(2,4-Dimethylpyridin-3-yl)-1H-benzo[d]imidazol-6-yl)-3,5-dimethylisoxazole] the value was 236 nM; for `Cc1ccc2ncccc2c1-c1cc(-c2c(C)noc2C)cc2[nH]c(C(F)(F)F)nc12` [Compound 1020-92, 3,5-Dimethyl-4-(4-(6-methylquinolin-5-yl)-2-(trifluoromethyl)-1H-benzo[d]imidazol-6-yl)isoxazole], 73.1 nM.
On the same count and under the same terms, for `Cc1ccc2ncccc2c1-c1cc(-c2c(C)noc2C)cc2[nH]c(C(O)CCO)nc12` (centres unmarked) [Compound 1020-89, 1-(6-(3,5-dimethylisoxazol-4-yl)-4-(6-methylquinolin-5-yl)-1H-benzo[d]imidazol-2-yl)propane-1,3-diol] the value was 104 nM; for `CC/C=C(\CC)c1cc(-c2c(C)noc2C)cc2nc(C3CC3)[nH]c12` [Compound 1020-28, (E)-4-(2-Cyclopropyl-4-(hex-3-en-3-yl)-1H-benzo[d]imidazol-6-yl)-3,5-dimethylisoxazole], 51.6 nM; for `Cc1ccc2ncccc2c1-c1cc(-c2c(C)noc2C)cc2nc(C3CC3)n(C)c12` [Compound 1020-74, 4-(2-Cyclopropyl-1-methyl-7-(6-methylquinolin-5-yl)-1H-benzo[d]imidazol-5-yl)-3,5-dimethylisoxazole], 15.3 nM.
The same measure, in the same setting: in the case of `Cc1noc(C)c1-c1cc(S(=O)(=O)NC2CCCC2)c2nc(NCC(F)(F)F)[nH]c2c1` [Compound 1020-148] it was 495 nM; in that of `Cc1ccc2ncccc2c1-c1cc(-c2c(C)noc2C)cc2[nH]c(-c3cnn(C)c3)nc12` [Compound 1020-88, 3,5-Dimethyl-4-(2-(1-methyl-1H-pyrazol-4-yl)-4-(6-methylquinolin-5-yl)-1H-benzo[d]imidazol-6-yl)isoxazole], 45.2 nM.
As for `Cc1noc(C)c1-c1cc(C(C)c2ccc(F)cc2)c2[nH]c(C3CC3)nc2c1` (centres unmarked) [Compound 1020-44, 4-(2-Cyclopropyl-4-(1-(4-fluorophenyl)ethyl)-1H-benzo[d]imidazol-6-yl)-3,5-dimethylisoxazole], the IC50 stood at 86.1 nM.
In the case of `Cc1ccnc(C)c1-c1cc(-c2c(C)noc2C)cc2nc(C3CC3)[nH]c12` [Compound 1020-57, 4-(2-Cyclopropyl-7-(2,4-dimethylpyridin-3-yl)-1H-benzo[d]imidazol-5-yl)-3,5-dimethylisoxazole], the IC50 was 13.6 nM.
Still for that read-out and setting: in the case of `Cc1noc(C)c1-c1cc(S(=O)(=O)NC2CCCC2)c2nc(NCC3CC3)[nH]c2c1` [Compound 1020-1, N-Cyclopentyl-2-(cyclopropylmethylamino)-6-(3,5-dimethylisoxazol-4-yl)-1H-benzo[d]imidazole-4-sulfonamide] it was 193 nM.

Still in this assay, the particulars now being: Table 1; 5 days, Cell Titer Glo; method text calls it EC50; read-out: MT4 Assay, (IC50).
In the case of `Cc1n[nH]c(C)c1-c1cc(-c2c(C)noc2C)cc2[nH]c(C3CCC3)nc12` [Compound 1020-75, 4-(2-Cyclobutyl-4-(3,5-dimethyl-1H-pyrazol-4-yl)-1H-benzo[d]imidazol-6-yl)-3,5-dimethylisoxazole], the IC50 was found to be 18.4 nM.
